Patent US20260272895A1, “METHODS AND KITS FOR DELIVERY OF COMPOUNDS INTO CELLS” (Yale University, priority 2023, published 2026)

How the values were obtained:
[1] = tested on: brain cell types; experiment: In vivo two-photon imaging of mouse cortex after topical cortical administration of fluorophores
Experimental: Briefly, animals are anaesthetized via intraperitoneal injections of ketamine/xylazine or via inhaled isoflurane. A region of the skull (3×3 mm) is gently removed with a high-speed drill and the underlying dura is removed. A small glass coverslip is placed over the skull to allow long term optical access for in vivo imaging. Labeling with fluorescent dyes is performed either via intravenous injections or topically application to the cortical surface for 20 min prior to glass cover placement. After recovery, in vivo images are acquired using a two-photon microscope (Bruker Technologies) equipped with a multimodal (fixed wavelength 1040 nm and tunable wavelength) InSight X3 two-photon laser (Spectra Physics) and 20× water immersion objective (Zeiss 1.0N.A.). The two-photon laser is appropriately tuned to excite particular fluorescent dyes and proteins as needed. In selected cases, following in vivo imaging, mice will be sacrificed and perfused for follow up immunohistochemistry and high-resolution confocal imaging (Leica SP8) to further confirm colocalization of dyes and cells expressing particular transporters.
One-month-old wild-type mice were anesthetized using a ketamine/xylazine solution at doses of 100 mg/kg and 10 mg/kg, respectively. The fur around the skull area was shaved, and buprenex (0.1 mg per kg) and carprofen (5 mg per kg) were administered subcutaneously. Mice were kept on a heating pad at 37° C., and anesthesia was periodically monitored. The skin was treated with povidone-iodine solution, followed by cleaning with ethanol, and eye ointment was applied. A small skin section was excised to expose the skull. Thinning of the skull was performed in a circular area, followed by delicately lifting of the remaining skull without harm to the underlying brain. Within the circular region, the dura was gently removed using fine forceps, and a 4 mm cover glass was softly pressed onto the brain surface and affixed to the skull. Fluorescent dyes were applied either through intravenous injections or topically to the cortical surface for 20 minutes before placing the glass cover. A customized head bar was attached either by adhesive (for acute imaging) or permanently implanted (using dental cement, for chronic imaging) onto the skull. Mice were imaged under a two-photon microscope (Prairie Technologies) with a mode-locked MaiTai tunable laser (Spectra Physics). Imaging was performed with a 20× water immersion objective (Zeiss, 1.0NA). Images were captured at depths up to 300 μm from the pial surface using excitation wavelengths ranging from 750 to 950 nm as previously described. Mice undergoing chronic imaging received a recovery period on a heating pad post-surgery, and buprenex (0.1 mg per kg) and carprofen (5 mg per kg) were administered for 3 days.
Batches of 10 compounds were applied through the craniotomy to the cortical surface before placing a cover glass window. No additional washings were performed, and the cover glass was placed, allowing up to 3 hours of imaging of the cortical surface with a two-photon microscope. Following imaging, the data were analyzed to identify potential patterns of cell-specific labeling. […] Positive batches underwent three additional rounds of imaging, with each batch being sequentially split, until a single compound displaying cell-type-specific labeling was identified. As these compounds were not initially purified, the labeling may have resulted from fluorescent byproducts of synthesis. Consequently, large-scale synthesis, purification and characterization (FIGS. 29A-29D) of the identified compounds were conducted. The purified compounds were subsequently retested using in vivo imaging to confirm cell type specificity.
It was reasoned that the best strategy to identify fluorophores with specific affinity to certain cell types and transport mechanisms would be by direct screening in the intact in vivo brain microenvironment. […]

[2] = target: T1, Slco1a4 (Mus musculus, UniProt Q9EP96); experiment: Uptake by cells ectopically expressing Slco1a4 (in utero electroporation) in live mice; assay type: in vivo; design: FLAG; expressed in transfected cells; host or cells: cortical neurons of live mice, in utero electroporation at E14/E15; details: topical cortical administration (50 μM where stated)
T1 sequence (Q9EP96 1-670): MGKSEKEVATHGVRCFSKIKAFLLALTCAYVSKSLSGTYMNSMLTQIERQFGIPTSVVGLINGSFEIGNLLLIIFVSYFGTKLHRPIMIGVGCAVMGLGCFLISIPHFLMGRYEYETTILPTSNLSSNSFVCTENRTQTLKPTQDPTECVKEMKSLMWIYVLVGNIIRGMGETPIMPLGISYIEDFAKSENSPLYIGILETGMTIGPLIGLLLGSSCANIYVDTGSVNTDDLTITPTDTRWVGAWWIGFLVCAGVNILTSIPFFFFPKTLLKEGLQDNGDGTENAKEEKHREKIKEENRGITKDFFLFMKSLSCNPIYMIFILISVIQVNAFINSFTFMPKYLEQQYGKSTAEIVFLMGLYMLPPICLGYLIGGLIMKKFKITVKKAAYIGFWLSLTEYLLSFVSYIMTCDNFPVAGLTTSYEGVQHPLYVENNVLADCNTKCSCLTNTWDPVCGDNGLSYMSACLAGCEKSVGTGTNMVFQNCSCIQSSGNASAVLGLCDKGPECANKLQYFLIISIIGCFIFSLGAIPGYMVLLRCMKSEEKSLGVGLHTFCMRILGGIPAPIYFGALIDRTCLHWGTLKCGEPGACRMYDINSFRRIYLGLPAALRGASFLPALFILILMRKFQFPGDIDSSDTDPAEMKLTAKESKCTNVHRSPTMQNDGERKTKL
Experimental: IUE is performed at E14 or E15 as previously done. Briefly, timed pregnant mice are anaesthetized with ketamine/xylazine. The abdominal region is shaved, sterilized and a 3 cm midline incision is made in the skin and abdominal muscle. The uterine horns are exposed, and the lateral ventricle of each embryo is pressure injected (Picospritzer II, General Valve) with plasmid DNA (~[…] volume per embryo) at a concentration of […] followed by electroporation with tweezertrodes (50 V, 4-50 ms pulses with I s pulse interval. BTX Harvard Apparatus). The embryos are placed back in the mother womb, and the muscle and skin are sutured. Electroporated pups are aged to postnatal day 30. Imaging is performed through a craniotomy over the transfected hemisphere following dye labeling.
Briefly, animals are anaesthetized via intraperitoneal injections of ketamine/xylazine or via inhaled isoflurane. A region of the skull (3×3 mm) is gently removed with a high-speed drill and the underlying dura is removed. A small glass coverslip is placed over the skull to allow long term optical access for in vivo imaging. […]
One-month-old wild-type mice were anesthetized using a ketamine/xylazine solution at doses of 100 mg/kg and 10 mg/kg, respectively. […] Mice were kept on a heating pad at 37° C., and anesthesia was periodically monitored. […]

`O=S(=O)([O-])c1cc(S(=O)(=O)O)ccc1C1=c2cc3c4c(c2Oc2cc(Br)ccc21)CCC[N+]=4CCC3` [Compound 1, 2-(12-bromo-1,2,3,5,6,7-hexahydrochromeno[2,3-f]pyrido[3,2,1-ij]quinolin-4-ium-9-yl)-5-sulfobenzenesulfonate] was tested, and the Target ([1]; cell type taking up the compound in vivo (Table 1)) was “Endothelial”, the “labeling of other (non-endothelial) cell types” value ([1]; topical application to cortex) was “only endothelial cells are labeled” and the “endothelial cell labeling/uptake after topical application to the brain” value ([1]; topical cortical application) was “Highly specific labeling of endothelial cells within capillaries”. The “uptake by neurons ectopically expressing Slco1a4” value [2] was “only those cells that express SLCO1A2 or SLCO1A4 (as evidenced by the GFP fluorescence (green)) take up compound 1”.
`COc1cc2c(c(OC)c1OC)-c1ccc(OC)c(=O)cc1C(NS(=O)(=O)c1ccc(-c3c4ccc(N(C)C)cc4[o+]c4cc(N(C)C)ccc34)c(S(=O)(=O)[O-])c1)CC2` (stereo not drawn) [Compound 47, 2-(3,6-bis(dimethylamino)xanthylium-9-yl)-5-(N-(1,2,3,10-tetramethoxy-9-oxo-5,6,7,9-tetrahydrobenzo[a]heptalen-7-yl)sulfamoyl)benzenesulfonate] was tested, and the “cellular labeling in cortex” value ([1]; topical cortical administration, 50 μM, wild type mice) was “labeling of endothelial processes (arrow) and cell bodies (arrowhead)” and the “uptake by neurons ectopically expressing Slco1a4” value [2] was “marked uptake”.
